The record followed here is publication PMC10559868, “Spectroscopic study and molecular simulation: Bovine serum albumin binding with anticancer Pt complex of amyl dithiocarbamate ligand” (Heliyon, 2023).

SMILES strings stand for the structures.

The target in the assay is T1, Bovine serum albumin (BSA) (Bos taurus, UniProt P02769).
T1 construct: gene ALB
Conditions: read-out: Kb M^-1)).

T1 sequence (P02769 25-607): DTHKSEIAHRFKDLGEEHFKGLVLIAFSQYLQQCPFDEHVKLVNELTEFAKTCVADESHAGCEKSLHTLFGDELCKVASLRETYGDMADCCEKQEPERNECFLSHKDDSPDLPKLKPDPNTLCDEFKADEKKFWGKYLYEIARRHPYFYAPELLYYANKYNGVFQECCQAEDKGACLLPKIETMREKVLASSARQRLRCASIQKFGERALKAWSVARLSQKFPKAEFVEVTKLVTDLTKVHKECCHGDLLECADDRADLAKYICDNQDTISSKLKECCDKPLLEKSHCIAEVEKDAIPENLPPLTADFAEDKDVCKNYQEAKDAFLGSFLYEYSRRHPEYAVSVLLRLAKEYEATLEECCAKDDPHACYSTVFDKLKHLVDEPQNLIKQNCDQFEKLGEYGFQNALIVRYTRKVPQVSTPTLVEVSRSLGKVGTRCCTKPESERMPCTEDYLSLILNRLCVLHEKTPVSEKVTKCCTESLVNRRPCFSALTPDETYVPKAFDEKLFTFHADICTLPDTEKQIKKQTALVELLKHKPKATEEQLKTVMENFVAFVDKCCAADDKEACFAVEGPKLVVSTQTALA

In the case of `CCCCCNC1=[S+][Pt-2]2([S]1)[n+]1ccccc1-c1cccc[n+]12` [[Pt(bpy)(amyl.dtc)]NO3], the Kd is 148 µM.
